Laboratory results from patent US10751339B2, “Substituted aminopyrimidine compounds and methods of use” (SUNSHINE LAKE PHARMA CO., LTD., priority 2018, dated 2020).

Key:
[1] = system: indolent B cell malignancies; settings: Phase I, subset of patients with indolent B cell malignancies; cited from earlier work
[2] = Compound stability in human liver microsomes; type: in vitro ADME; settings: pH 7.4; for CLint scaled at 5 μM: liver microsomes, in vivo CLint extrapolated from human liver microsome incubation; for half-life at 5 μM: human liver microsomes 0.5 mg protein/mL, compound 5 μM, NADPH, 37° C., read-out: Human T1/2
Method: (§1) Human or rat liver microsomes incubations were conducted in duplicate in polypropylene tubes. The typical incubation mixtures consisted of human or rat liver microsomes (0.5 mg protein/mL), compounds of interest (5 μM) and NADPH (1.0 mM) in a total volume of 200 μL potassium phosphate buffer (PBS, 100 mM, pH 7.4). Compounds were dissolved in DMSO and diluted with PBS such that the final concentration of DMSO was 0.05%. The enzymatic reactions were commenced with the addition of protein after a 3-min preincubation and incubated in a water bath open to the air at 37° C. Reactions were terminated at various time points (0, 5, 10, 15, 30, 60 min) by adding equal volume of ice-cold acetonitrile. The samples were stored at −80° C. until LC/MS/MS assays.
(§2) The concentrations of compounds in the incubation mixtures of human or rat liver microsomes were determined by a LC/MS/MS method. The ranges of the linearity in the concentration range were determined for each tested compounds.
(§3) A parallel incubation was performed using denatured microsomes as the negative control, and reactions were terminated at various time points (0, 15, 60 min) after incubation at 37° C.
(§4) Dextromethorphan (70 μM) was selected as the positive control, and reactions were terminated at various time points (0, 5, 10, 15, 30, 60 min) after incubation at 37° C. Both positive and negative control samples were included in each assay to ensure the integrity of the microsomal incubation system.
(§5) The concentrations of compounds in human or rat liver microsome incubations were plotted as a percentage of the relevant zero time point control for each reaction.

[3] = Compound stability in rat liver microsomes; type: in vitro ADME; settings: pH 7.4; for CLint scaled at 5 μM: liver microsomes, in vivo CLint extrapolated from rat liver microsome incubation; for half-life at 5 μM: rat liver microsomes 0.5 mg protein/mL, compound 5 μM, NADPH, 37° C., read-out: Rat T1/2
Method: as §1, §2, §3, §4, §5

PI3K (p110α/p85α) (h) = PI3K (p110α/p85α) (h) (Homo sapiens (Human), UniProt P42336); assay: PI3K (p110α/p85α) (h) non-radioactive HTRF kinase assay; type: biochemical
Method: (§6) PI3K (p110α/p85α) (h) is incubated in assay buffer containing 10 μM phosphatidylinositol 4,5-bisphosphate and MgATP (concentration as required). The reaction is initiated by the addition of the ATP solution. After incubation for 30 minutes at room temperature, the reaction is stopped by the addition of stop solution containing EDTA and biotinylated phosphatidylinositol-3,4,5-trisphosphate. Finally, detection buffer is added, which contains europium-labelled anti-GST monoclonal antibody, GST-tagged GRP1 PH domain and streptavidin allophycocyanin. The plate is then read in timeresolved fluorescence mode and the homogenous time-resolved fluorescence (HTRF) signal is determined according to the formula HTRF=10000×(Em665 nm/Em620 nm).
(§7) The kinase assays described herein were performed at Millipore UK Ltd, Dundee Technology Park, Dundee DD2 1SW, UK.

PI3K (p110β/p85α) (h) = PI3K (p110β/p85α) (h) (Homo sapiens (Human), UniProt P42338); assay: PI3K (p110β/p85α) (h) non-radioactive HTRF kinase assay; type: biochemical
Method: as §6, with “(p110β/p85α)” for “(p110α/p85α)”, “phosphatidylinositol-4,5-bisphosphate” for “phosphatidylinositol 4,5-bisphosphate”, “MgATP mix.” for “ATP solution.”, “streptavidin-allophycocyanin.” for “streptavidin allophycocyanin.”
as §7

PI3K (p110δ/p85α) (h) = PI3K (p110δ/p85α) (h) (Homo sapiens (Human), UniProt O00329); assay: PI3K (p110δ/p85α) (h) non-radioactive HTRF kinase assay; type: biochemical
Method: as §6, with “(p110δ/p85α)” for “(p110α/p85α)”, “phosphatidylinositol-4, 5-bisphosphate” for “phosphatidylinositol 4,5-bisphosphate”, “MgATP mix.” for “ATP solution.”, “streptavidin-allophycocyanin.” for “streptavidin allophycocyanin.”
as §7

PI3K (p120γ) (h) = PI3K (p120γ) (h) (Homo sapiens (Human), UniProt P48736); assay: PI3K (p120γ) (h) non-radioactive HTRF kinase assay; type: biochemical
Method: as §6, with “(p120γ)” for “(p110α/p85α)”, “phosphatidylinositol-4, 5-bisphosphate” for “phosphatidylinositol 4,5-bisphosphate”, “MgATP mix.” for “ATP solution.”, “streptavidin-allophycocyanin.” for “streptavidin allophycocyanin.”
as §7

PI3K-α (SKOV3) = assay: p-AKT HTRF assay, PI3K-α in SKOV3 cells; type: cell-based; settings: Homo sapiens, SK-OV-3
Method: (§8) Cells were incubated at 37° C. in a 5% CO2 atmosphere overnight. […] Medium was then aspirated and 50 μL/well of lysis buffer was added. Plates were shaked for 45 minutes at room temperature and then 16 ul/well of lysate was transferred to 384-well plate. 4 ul/well of premixed antibody was added to the wells. The plate was centrifuged at 1000 rpm at RT for 1 minute and then incubated for 4 hours at 22° C., and Phospho-AKT (ser473) Kit was used for detection.

PI3K-β (786-O) = assay: p-AKT HTRF assay, PI3K-β in 786-O cells; type: cell-based; settings: Homo sapiens, 786-0
Method: as §8

PI3K-δ (RAJI) = assay: p-AKT HTRF assay, PI3K-δ in RAJI cells stimulated with anti-IgM; type: cell-based; settings: anti-human IgM stimulation
Method: as §8

PI3K-γ (RAW264.7) = assay: p-AKT HTRF assay, PI3K-γ in RAW 264.7 cells stimulated with C5a; type: cell-based, murine; settings: Mus musculus; RAW264.7 cells, C5a stimulation
Method: as §8

hERG channels = hERG channels (Homo sapiens (Human), UniProt Q12809); assay: hERG assay, automated QPatch procedure; type: cell-based
Description: Only stable cells with recording parameters above threshold were allowed to enter the drug application procedure.

Chain of PI3K (p120γ) (h) (P48736 whole entry): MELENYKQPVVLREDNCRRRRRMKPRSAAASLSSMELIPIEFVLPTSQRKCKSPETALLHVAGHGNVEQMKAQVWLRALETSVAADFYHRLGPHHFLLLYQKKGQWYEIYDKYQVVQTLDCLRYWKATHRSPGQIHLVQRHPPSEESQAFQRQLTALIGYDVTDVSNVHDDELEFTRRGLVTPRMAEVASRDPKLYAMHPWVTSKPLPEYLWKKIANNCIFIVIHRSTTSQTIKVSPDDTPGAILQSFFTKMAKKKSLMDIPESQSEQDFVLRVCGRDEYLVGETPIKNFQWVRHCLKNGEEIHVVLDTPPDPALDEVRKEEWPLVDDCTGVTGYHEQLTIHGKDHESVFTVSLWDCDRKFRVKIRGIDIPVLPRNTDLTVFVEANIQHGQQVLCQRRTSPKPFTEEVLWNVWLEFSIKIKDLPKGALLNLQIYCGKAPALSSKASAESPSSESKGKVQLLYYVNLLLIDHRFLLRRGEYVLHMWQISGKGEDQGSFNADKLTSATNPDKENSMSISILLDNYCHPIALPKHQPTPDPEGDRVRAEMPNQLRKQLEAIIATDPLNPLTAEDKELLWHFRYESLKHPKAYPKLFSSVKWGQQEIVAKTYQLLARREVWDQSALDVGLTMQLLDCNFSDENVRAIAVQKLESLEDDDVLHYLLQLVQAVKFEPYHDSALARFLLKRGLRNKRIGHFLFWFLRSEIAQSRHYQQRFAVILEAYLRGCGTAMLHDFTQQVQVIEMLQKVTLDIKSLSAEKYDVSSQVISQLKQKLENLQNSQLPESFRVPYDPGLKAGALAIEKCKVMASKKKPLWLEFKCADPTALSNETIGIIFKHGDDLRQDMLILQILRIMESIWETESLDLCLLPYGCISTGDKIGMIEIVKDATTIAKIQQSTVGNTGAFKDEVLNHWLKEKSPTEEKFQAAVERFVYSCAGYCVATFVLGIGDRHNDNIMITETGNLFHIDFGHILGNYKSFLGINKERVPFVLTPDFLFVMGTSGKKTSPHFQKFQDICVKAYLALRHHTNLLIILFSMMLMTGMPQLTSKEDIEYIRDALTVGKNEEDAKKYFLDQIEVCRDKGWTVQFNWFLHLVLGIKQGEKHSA
Chain of PI3K (p110β/p85α) (h) (P42338 whole entry): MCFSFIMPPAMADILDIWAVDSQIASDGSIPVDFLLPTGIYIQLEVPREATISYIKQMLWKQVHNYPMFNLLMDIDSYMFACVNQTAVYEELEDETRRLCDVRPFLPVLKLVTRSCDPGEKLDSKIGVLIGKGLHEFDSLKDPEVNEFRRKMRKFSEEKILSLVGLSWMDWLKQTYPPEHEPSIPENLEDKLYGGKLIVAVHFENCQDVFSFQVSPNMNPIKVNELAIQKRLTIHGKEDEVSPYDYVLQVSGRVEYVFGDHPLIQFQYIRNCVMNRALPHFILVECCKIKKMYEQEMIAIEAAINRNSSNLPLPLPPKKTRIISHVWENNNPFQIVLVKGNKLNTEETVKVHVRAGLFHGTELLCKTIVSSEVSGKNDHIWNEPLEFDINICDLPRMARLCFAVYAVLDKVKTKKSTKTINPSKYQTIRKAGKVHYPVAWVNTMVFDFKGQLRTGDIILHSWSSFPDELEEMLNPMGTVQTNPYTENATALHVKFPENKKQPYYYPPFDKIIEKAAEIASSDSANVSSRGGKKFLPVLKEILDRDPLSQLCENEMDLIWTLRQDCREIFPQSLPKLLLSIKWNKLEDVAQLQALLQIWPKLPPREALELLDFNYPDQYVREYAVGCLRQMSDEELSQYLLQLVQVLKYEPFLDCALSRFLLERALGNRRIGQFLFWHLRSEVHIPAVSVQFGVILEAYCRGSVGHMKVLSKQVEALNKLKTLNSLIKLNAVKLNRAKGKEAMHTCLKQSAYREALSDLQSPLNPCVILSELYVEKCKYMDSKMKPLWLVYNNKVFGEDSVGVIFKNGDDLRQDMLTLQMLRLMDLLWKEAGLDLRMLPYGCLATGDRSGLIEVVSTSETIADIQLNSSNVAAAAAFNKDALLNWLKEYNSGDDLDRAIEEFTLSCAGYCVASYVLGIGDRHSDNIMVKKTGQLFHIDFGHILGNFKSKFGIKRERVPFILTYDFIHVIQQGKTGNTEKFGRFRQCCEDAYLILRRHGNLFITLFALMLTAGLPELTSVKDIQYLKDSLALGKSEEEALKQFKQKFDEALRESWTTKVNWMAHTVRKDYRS
Chain of PI3K (p110β/p85α) (h) (P27986 whole entry partner): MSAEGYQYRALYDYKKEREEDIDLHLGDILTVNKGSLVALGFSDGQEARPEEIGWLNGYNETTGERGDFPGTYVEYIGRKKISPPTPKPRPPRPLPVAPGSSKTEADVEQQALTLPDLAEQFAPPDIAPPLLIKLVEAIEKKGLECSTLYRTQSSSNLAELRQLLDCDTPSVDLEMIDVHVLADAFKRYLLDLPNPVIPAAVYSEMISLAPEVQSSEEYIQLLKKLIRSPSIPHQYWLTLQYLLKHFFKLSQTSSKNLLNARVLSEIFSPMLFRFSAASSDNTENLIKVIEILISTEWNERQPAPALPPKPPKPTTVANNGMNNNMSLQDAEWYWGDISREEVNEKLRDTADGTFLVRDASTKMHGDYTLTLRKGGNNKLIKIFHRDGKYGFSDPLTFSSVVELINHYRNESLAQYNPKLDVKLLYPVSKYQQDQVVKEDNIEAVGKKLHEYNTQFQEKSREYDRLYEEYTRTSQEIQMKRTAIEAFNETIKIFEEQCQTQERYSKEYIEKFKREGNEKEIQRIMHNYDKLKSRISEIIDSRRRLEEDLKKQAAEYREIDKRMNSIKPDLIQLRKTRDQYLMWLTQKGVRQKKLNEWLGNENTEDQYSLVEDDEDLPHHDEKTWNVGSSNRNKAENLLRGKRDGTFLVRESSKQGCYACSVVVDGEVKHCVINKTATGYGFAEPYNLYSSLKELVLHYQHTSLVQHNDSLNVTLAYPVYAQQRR
Chain of PI3K (p110δ/p85α) (h) (O00329 whole entry): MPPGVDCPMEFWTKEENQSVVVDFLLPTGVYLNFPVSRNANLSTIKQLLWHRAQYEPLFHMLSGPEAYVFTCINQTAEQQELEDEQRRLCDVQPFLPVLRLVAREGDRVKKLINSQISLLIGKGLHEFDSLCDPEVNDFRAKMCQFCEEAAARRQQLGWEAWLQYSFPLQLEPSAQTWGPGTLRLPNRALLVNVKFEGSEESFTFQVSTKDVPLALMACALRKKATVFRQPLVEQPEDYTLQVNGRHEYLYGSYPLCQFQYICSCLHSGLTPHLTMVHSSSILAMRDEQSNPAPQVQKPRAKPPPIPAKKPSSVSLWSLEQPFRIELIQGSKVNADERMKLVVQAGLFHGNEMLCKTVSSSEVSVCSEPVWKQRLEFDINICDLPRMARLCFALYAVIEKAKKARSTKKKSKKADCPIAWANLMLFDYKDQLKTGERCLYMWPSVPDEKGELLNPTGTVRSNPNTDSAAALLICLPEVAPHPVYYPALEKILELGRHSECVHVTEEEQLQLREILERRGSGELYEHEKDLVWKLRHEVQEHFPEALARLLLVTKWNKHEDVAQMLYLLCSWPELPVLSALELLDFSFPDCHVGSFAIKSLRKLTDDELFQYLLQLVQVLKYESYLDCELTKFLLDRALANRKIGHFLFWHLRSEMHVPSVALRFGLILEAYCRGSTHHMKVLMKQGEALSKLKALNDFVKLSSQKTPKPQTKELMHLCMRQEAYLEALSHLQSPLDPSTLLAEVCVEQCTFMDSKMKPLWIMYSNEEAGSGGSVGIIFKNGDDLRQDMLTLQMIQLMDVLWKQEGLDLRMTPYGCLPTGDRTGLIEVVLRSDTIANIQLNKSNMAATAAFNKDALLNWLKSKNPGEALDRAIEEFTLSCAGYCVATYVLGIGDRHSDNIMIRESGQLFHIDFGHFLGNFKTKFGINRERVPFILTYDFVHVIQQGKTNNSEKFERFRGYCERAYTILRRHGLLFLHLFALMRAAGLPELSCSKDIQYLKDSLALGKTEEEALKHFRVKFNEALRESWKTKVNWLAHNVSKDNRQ
Chain of PI3K (p110δ/p85α) (h) (P27986 whole entry partner): as the sequence (P27986 whole entry partner) above
Chain of PI3K (p110α/p85α) (h) (P42336 whole entry, the tested form may be a part): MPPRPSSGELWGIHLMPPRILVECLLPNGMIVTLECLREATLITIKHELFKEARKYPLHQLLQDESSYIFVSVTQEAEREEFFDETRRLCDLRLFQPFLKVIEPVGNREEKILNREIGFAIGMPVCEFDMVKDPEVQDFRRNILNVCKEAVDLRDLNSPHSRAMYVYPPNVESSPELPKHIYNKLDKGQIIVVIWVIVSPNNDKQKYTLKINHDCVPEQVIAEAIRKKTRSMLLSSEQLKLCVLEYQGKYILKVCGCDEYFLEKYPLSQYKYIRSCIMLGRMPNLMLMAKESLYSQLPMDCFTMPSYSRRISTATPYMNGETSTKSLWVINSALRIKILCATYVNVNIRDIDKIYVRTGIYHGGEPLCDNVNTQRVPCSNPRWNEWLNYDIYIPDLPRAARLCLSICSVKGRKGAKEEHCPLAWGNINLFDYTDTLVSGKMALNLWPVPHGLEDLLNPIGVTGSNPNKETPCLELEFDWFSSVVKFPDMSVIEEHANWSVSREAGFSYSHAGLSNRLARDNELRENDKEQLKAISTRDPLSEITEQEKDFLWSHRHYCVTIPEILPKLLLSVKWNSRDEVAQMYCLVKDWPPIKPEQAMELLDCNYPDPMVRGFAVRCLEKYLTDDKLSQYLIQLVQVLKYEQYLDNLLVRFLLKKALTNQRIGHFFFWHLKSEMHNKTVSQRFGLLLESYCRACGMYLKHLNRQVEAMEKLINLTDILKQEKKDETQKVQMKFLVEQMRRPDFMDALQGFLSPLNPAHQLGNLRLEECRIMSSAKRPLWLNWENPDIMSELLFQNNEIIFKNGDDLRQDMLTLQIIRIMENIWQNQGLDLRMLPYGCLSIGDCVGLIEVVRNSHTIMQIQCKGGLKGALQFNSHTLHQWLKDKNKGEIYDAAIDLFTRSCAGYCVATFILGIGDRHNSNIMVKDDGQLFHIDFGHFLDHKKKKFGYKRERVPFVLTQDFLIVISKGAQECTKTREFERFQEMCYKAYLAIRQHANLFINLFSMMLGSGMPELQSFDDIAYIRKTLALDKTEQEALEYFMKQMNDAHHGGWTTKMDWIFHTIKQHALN
Chain of PI3K (p110α/p85α) (h) (P27986 whole entry partner, the tested form may be a part): as the sequence (P27986 whole entry partner) above

Row | CLint scaled at 5 μM [2] | half-life at 5 μM [2] | CLint scaled at 5 μM [3] | half-life at 5 μM [3] | IC50 (PI3K (p110α/p85α) (h)) | IC50 (PI3K (p110β/p85α) (h)) | IC50 (PI3K (p110δ/p85α) (h)) | IC50 (PI3K (p120γ) (h)) | IC50 (PI3K-α (SKOV3)) | IC50 (PI3K-β (786-O)) | IC50 (PI3K-δ (RAJI)) | IC50 (PI3K-γ (RAW264.7)) | Structure (SMILES) | clinical response [1] | IC50 (hERG channels)
1 | – | – | – | – | – | – | – | – | – | – | – | – | CC[C@H](Nc1ncnc2[nH]cnc12)c1nc2cccc(F)c2c(=O)n1-c1ccccc1 [CAL-101, idelalisib] | dramatic and durable responses | –
2 | 20.8 mL/min/kg | 83.7 min | 28 mL/min/kg | 88.7 min | 2.4 µM | 1.87 µM | 0.017 µM | 0.512 µM | – | – | – | – | Cc1noc(-c2c(N)ncnc2N[C@@H](C)c2nc3cccc(C#CC(C)O)c3c(=O)n2-c2ccccc2)n1 (stereo partly drawn) [Example 5, 2-((S)-1-((6-amino-5-(3-meth-1,2,4-oxadiazol-5-1)pyrimidin-4-1)amino)ethyl)-5-(3-hydroxybut-1-yn-1-yl)-3-phenylquinazolin-4(3H)-one] | – | –
3 | 80.5 mL/min/kg | 21.6 min | 85.2 mL/min/kg | 29.2 min | 0.46 µM | 0.151 µM | 0.002 µM | 0.047 µM | – | – | – | – | CC#Cc1cccc2nc([C@H](C)Nc3ncnc(N)c3-c3nc(C)no3)n(-c3ccccc3)c(=O)c12 [Example 9, (S)-2-(1-((6-amino-5-(3-methyl-1,2,4-oxadiazol-5-yl)pyrimidin-4-yl)amino)ethyl)-3-phenyl-5-(prop-1-yn-1-yl)quinazolin-4(3H)-one] | – | –
4 | 150 mL/min/kg | 11.6 min | 213 mL/min/kg | 11.7 min | 1.89 µM | 0.582 µM | 0.008 µM | 0.015 µM | – | – | – | – | CC#Cc1cccc2nc([C@H](CC)Nc3ncnc(N)c3-c3nc(C)no3)n(-c3ccccc3)c(=O)c12 [Example 14, (S)-2-(1-((6-amino-5-(3-methyl-1,2,4-oxadiazol-5-yl)pyrimidin-4-yl)amino)propyl)-3-phenyl-5-(prop-1-yn-1-yl)quinazolin-4(3H)-one] | – | –
5 | – | – | – | – | 0.121 µM | 0.061 µM | 0.01 µM | 0.026 µM | 0.305 µM | 0.0344 µM | 0.00052 µM | 0.0226 µM | CC#Cc1cccc2cc([C@H](C)Nc3ncnc(N)c3-c3nc(C)no3)n(-c3ccccc3)c(=O)c12 [Example 16, (S)-3-(1-((6-amino-5-(3-methyl-1,2,4-oxadiazol-5-yl)pyrimidin-4-yl)amino)ethyl)-2-phenyl-8-(prop-1-yn-1-yl)isoquinolin-1(2H)-one] | – | > 30 µM
6 | 72.2 mL/min/kg | 24.1 min | 88.8 mL/min/kg | 28 min | > 3 µM | 0.119 µM | 0.024 µM | 0.077 µM | – | – | – | – | CC[C@H](Nc1ncnc(N)c1-c1nc(C)no1)c1nc2cccc(C#CCO)c2c(=O)n1C1CC1 [Example 29, (S)-2-(1-((6-amino-5-(3-methyl-1,2,4-oxadiazol-5-yl)pyrimidin-4-yl)amino)propyl)-3-cyclopropyl-5-(3-hydroxyprop-1-yn-1-yl)quinazolin-4(3H)-one] | – | –
7 | – | – | – | – | 1 µM | 0.104 µM | 0.011 µM | 0.118 µM | – | – | – | – | Cc1noc(-c2c(N)ncnc2N[C@@H](C)c2cc3cccc(C#CCO)c3c(=O)n2C2CC2)n1 [Example 33, (S)-3-(1-((6-amino-5-(3-methyl-1,2,4-oxadiazol-5-yl)-pyrimidin-4-yl)amino)ethyl)-2-cyclopropyl-8-(3-hydroxyprop-1-yn-1-yl)-isoquinolin-1 (2H)-one] | – | –
8 | 98.3 mL/min/kg | 17.7 min | 138 mL/min/kg | 18 min | 2.66 µM | 0.395 µM | 0.01 µM | 0.03 µM | – | – | – | – | CC[C@H](Nc1ncnc(N)c1-c1nc(C)no1)c1nc2cccc(C#CCO)c2c(=O)n1-c1ccccc1 [Example 36, (S)-2-(1-((6-amino-5-(3-methyl-1,2,4-oxadiazol-5-yl)pyrimidin-4-yl)amino)propyl)-5-(3-hydroxyprop-1-yn-1-yl)-3-phenylquinazolin-4(3H)-one] | – | –
9 | 39.8 mL/min/kg | 43.7 min | 113 mL/min/kg | 22 min | > 3 µM | > 3 µM | 0.045 µM | 0.44 µM | – | – | – | – | CC[C@H](Nc1ncnc(N)c1-c1nnc(C)o1)c1nc2cccc(C#CCO)c2c(=O)n1-c1ccccc1 [Example 37, (S)-2-(1-((6-amino-5-(5-methyl-1,3,4-oxadiazol-2-yl)pyrimidin-4-yl)amino)propyl)-5-(3-hydroxyprop-1-yn-1-yl)-3-phenylquinazolin-4(3H)-one] | – | –
10 | – | – | – | – | 0.704 µM | 0.154 µM | 0.005 µM | 0.044 µM | – | – | – | – | Cc1noc(-c2c(N)ncnc2N[C@@H](C)c2cc3cccc(C#CCO)c3c(=O)n2-c2ccccc2)n1 [Example 40, (S)-3-(1-((6-amino-5-(3-methyl-1,2,4-oxadiazol-5-yl)pyrimidin-4-yl)amino)ethyl)-8-(3-hydroxyprop-1-yn-1-yl)-2-phenylisoquinolin-1 (2H)-one] | – | –
11 | – | – | – | – | > 3 µM | 1.6 µM | 0.017 µM | 0.349 µM | – | – | – | – | Cc1noc(-c2c(N)ncnc2N[C@@H](C)c2nc3ccc(F)c(C#CCO)c3c(=O)n2-c2ccccc2)n1 [Example 42, (S)-2-(1-((6-amino-5-(3-methyl-1,2,4-oxadiazol-5-yl)pyrimidin-4-yl)amino)ethyl)-6-fluoro-5-(3-hydroxyprop-1-yn-1-yl)-3-phenylquinazolin-4(3H)-one] | – | –
